Values of other authors, collected in publication PMC7436013, “Design, Synthesis, and Biological Investigation of Novel Classes of 3-Carene-Derived Potent Inhibitors of TDP1” (Molecules, 2020).

Legend:
TDP1 = tested on: TDP1; design: method as in PMID 31619021, PMID 30396105, PMID 30142660, PMID 29562592, PMID 27658793; settings: Figure 1; ref [10]-[13],[16]-[18],[20],[22]; read-out: IC50 of known TDP1 inhibitors; cited from earlier work
Krebs-2 ascites = tested on: Krebs-2 ascites; design: method as in PMID 31878088; settings: in vivo tumor model, ref [17]; cited from earlier work

In the case of CC(C)=CCC/C(C)=C/COc1ccc2c(-c3ccc(F)cc3)cc(=O)oc2c1 [compound 5], the IC50 (TDP1) is given as 620 nM and the “effect on the antitumor effect of Tpc” value (Krebs-2 ascites) is given as “significant increase in the antitumor effect of Tpc”.
